Laboratory results taken from patent US8536202B2, “Triazole-substituted anthranilamides as pesticides” (Bayer Cropscience AG, priority 2010, dated 2013).
Like-named read-outs stand apart in the source and are kept apart here.

How the values were obtained:
[1] = test system: larvae of the mustard beetle (Phaedon cochleariae); assay: Phaedon test (PHAECO spray treatment); format: in vivo; conditions: 168 h, read-out: activity in %
Outline: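 Mortality of mustard beetle larvae, expressed as percent killed (100% all, 0% none), assessed 7 days after spraying. Spray liquor made from compound in acetone plus dimethylformamide with alkylaryl polyglycol ether, diluted in emulsifier-containing water to the desired concentration.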

[2] = test system: caterpillars of the armyworm (Spodoptera frugiperda); assay: Spodoptera frugiperda test (SPODFR spray treatment); format: in vivo; conditions: 168 h, read-out: activity in %
Outline: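 Percent caterpillar mortality read 7 days after infestation (0% none killed, 100% all killed). Treatment was a spray of the acetone/DMF/emulsifier formulation, water-diluted to test concentration, onto Zea mays leaf discs, allowed to dry before larvae were added.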

[3] = log P determination by HPLC on reversed-phase columns (EEC Directive 79/831 Annex V.A8); format: physicochemical; conditions: pH 2.7
Outline: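 Calibration used unbranched alkan-2-ones of 3 to 16 carbons with known log P, values interpolated linearly from retention times between neighbouring standards. Acidic-range LC-MS run at pH 2.7, eluents aqueous and acetonitrile formic acid 0.1%, linear gradient 10% to 95% acetonitrile.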

[4] = HPLC on reversed-phase columns (C 18), EEC Directive 79/831 Annex V.A8, read-out: logP

Row | Structure (SMILES) | pest or weed control at 100 g/ha ([1]; 100 g/ha, after 7 days) [%] | pest or weed control at 100 g/ha ([2]; 100 g/ha, after 7 days) [%] | chromatographic logP [3] | pest or weed control at 100 g/ha [1] [%] | pest or weed control at 100 g/ha [2] [%] | chromatographic logP [3, 4]
1 | Cc1cc(I)cc(C(N)=O)c1NC(=O)c1cc(Cn2ncc(C(F)(F)C(F)(F)F)n2)nn1-c1ncccc1Cl [Example 354] | 100 | 100 | 3.33 |  |  | 
2 | CCNC(=O)c1cc(I)cc(C)c1NC(=O)c1cc(Cn2ncc(C(F)(F)C(F)(F)F)n2)nn1-c1ncccc1Cl [Example 355] | 100 | 100 | 3.89 |  |  | 
3 | Cc1cc(I)cc(C(=O)NC(C)C2CC2)c1NC(=O)c1cc(Cn2ncc(C(F)(F)C(F)(F)F)n2)nn1-c1ncccc1Cl (stereo not drawn) [Example 357] | 100 | 100 | 4.45 |  |  | 
4 | Cc1cc(Cl)cc(C(=O)NCC2CC2)c1NC(=O)c1cc(Cn2ncc(C(F)(F)C(F)(F)C(F)(F)F)n2)nn1-c1ncccc1Cl [Example 366] |  |  |  | 100 | 100 | 4.34
5 | CCNC(=O)c1cc(Cl)cc(C)c1NC(=O)c1cc(Cn2ncc(C(F)(F)C(F)(F)C(F)(F)F)n2)nn1-c1ncccc1Cl [Example 367] |  |  |  | 100 | 100 | 4.03
6 | CCNC(=O)c1cc(I)cc(C)c1NC(=O)c1cc(Cn2ncc(C(F)(F)C(F)(F)C(F)(F)F)n2)nn1-c1ncccc1Cl [Example 369] |  |  |  | 100 | 100 | 4.28
7 | Cc1cc(Cl)cc(C(=O)NC2CC2)c1NC(=O)c1cc(Cn2ncc(C(F)(F)C(F)(F)C(F)(F)F)n2)nn1-c1ncccc1Cl [Example 370] |  |  |  | 100 | 100 | 3.99
8 | Cc1cc(I)cc(C(=O)NC(C)C)c1NC(=O)c1cc(Cn2ncc(C(F)(F)C(F)(F)C(F)(F)F)n2)nn1-c1ncccc1Cl [Example 371] |  |  |  | 100 | 100 | 4.46
9 | Cc1cc(C#N)cc(C(=O)NC2CC2)c1NC(=O)c1cc(Cn2ncc(C(F)(F)C(F)(F)C(F)(F)F)n2)nn1-c1ncccc1Cl [Example 376] |  |  |  | 100 | 100 | 3.63
10 | CNC(=O)c1cc(I)cc(C)c1NC(=O)c1cc(Cn2ncc(C(F)(F)C(F)(F)C(F)(F)F)n2)nn1-c1ncccc1Cl [Example 377] |  |  |  | 100 | 100 | 4
11 | Cc1cc(Cl)cc(C(=O)NC(C)C)c1NC(=O)c1cc(Cn2ncc(C(F)(F)C(F)(F)C(F)(F)F)n2)nn1-c1ncccc1Cl [Example 378] |  |  |  | 100 | 100 | 4.27
12 | Cc1cc(Cl)cc(C(=O)NC(C)C2CC2)c1NC(=O)c1cc(Cn2ncc(C(F)(F)C(F)(F)C(F)(F)F)n2)nn1-c1ncccc1Cl (stereo not drawn) [Example 379] |  |  |  | 100 | 100 | 4.57
13 | Cc1cc(I)cc(C(=O)NCC2CC2)c1NC(=O)c1cc(Cn2ncc(C(F)(F)C(F)(F)C(F)(F)F)n2)nn1-c1ncccc1Cl [Example 382] |  |  |  | 100 | 100 | 4.59
14 | Cc1cc(I)cc(C(=O)NC(C)(C)C)c1NC(=O)c1cc(Cn2ncc(C(F)(F)C(F)(F)C(F)(F)F)n2)nn1-c1ncccc1Cl [Example 385] |  |  |  | 100 | 100 | 4.89
15 | Cc1cc(I)cc(C(=O)NC(C)C2CC2)c1NC(=O)c1cc(Cn2ncc(C(F)(F)C(F)(F)C(F)(F)F)n2)nn1-c1ncccc1Cl (stereo not drawn) [Example 386] |  |  |  | 100 | 100 | 4.82
16 | CSC[C@H](C)NC(=O)c1cc(I)cc(C)c1NC(=O)c1cc(Cn2nc(C(F)(F)F)c(C(F)(F)F)n2)nn1-c1ncccc1Cl [Example 388] | 100 | 100 | 4.64 |  |  | 
17 | CCNC(=O)c1cc(I)cc(C)c1NC(=O)c1cc(Cn2nc(C(F)(F)F)c(C(F)(F)F)n2)nn1-c1ncccc1Cl [Example 389] | 100 | 100 | 4.23 |  |  | 

Row | Structure (SMILES) | pest or weed control at 100 g/ha ([1]; 100 g/ha, after 7 days) [%] | pest or weed control at 100 g/ha ([2]; 100 g/ha, after 7 days) [%] | chromatographic logP [3] | pest or weed control at 100 g/ha [1] [%] | pest or weed control at 100 g/ha [2] [%] | chromatographic logP [3, 4]
18 | Cc1cc(I)cc(C(=O)NC2CC2)c1NC(=O)c1cc(Cn2nc(C(F)(F)F)c(C(F)(F)F)n2)nn1-c1ncccc1Cl [Example 390] | 100 | 100 | 4.19 |  |  | 
19 | Cc1cc(I)cc(C(=O)NC(C)C2CC2)c1NC(=O)c1cc(Cn2nc(C(F)(F)F)c(C(F)(F)F)n2)nn1-c1ncccc1Cl (stereo not drawn) [Example 391] | 100 | 100 | 4.76 |  |  | 
20 | CCNC(=O)c1cc(Cl)cc(C)c1NC(=O)c1cc(Cn2nc(C(F)(F)F)c(C(F)(F)F)n2)nn1-c1ncccc1Cl [Example 392] | 100 | 100 | 3.98 |  |  | 
21 | Cc1cc(Cl)cc(C(=O)NC2CC2)c1NC(=O)c1cc(Cn2nc(C(F)(F)F)c(C(F)(F)F)n2)nn1-c1ncccc1Cl [Example 394] | 100 | 100 | 3.96 |  |  | 
22 | Cc1cc(C#N)cc(C(=O)NCC2CC2)c1NC(=O)c1cc(Cn2nc(C(F)(F)F)c(C(F)(F)F)n2)nn1-c1ncccc1Cl [Example 395] | 100 | 100 | 3.89 |  |  | 
23 | CCNC(=O)c1cc(C#N)cc(C)c1NC(=O)c1cc(Cn2nc(C(F)(F)F)c(C(F)(F)F)n2)nn1-c1ncccc1Cl [Example 397] | 100 | 100 | 3.61 |  |  | 
24 | Cc1cc(C#N)cc(C(=O)NC(C)C)c1NC(=O)c1cc(Cn2nc(C(F)(F)F)c(C(F)(F)F)n2)nn1-c1ncccc1Cl [Example 398] | 100 | 100 | 3.84 |  |  | 
25 | Cc1cc(C#N)cc(C(=O)NC2CC2)c1NC(=O)c1cc(Cn2nc(C(F)(F)F)c(C(F)(F)F)n2)nn1-c1ncccc1Cl [Example 399] | 100 | 100 | 3.59 |  |  | 
26 | Cc1cc(I)cc(C(=O)NCC2CC2)c1NC(=O)c1cc(Cn2nc(C(F)(F)F)c(C(F)(F)F)n2)nn1-c1ncccc1Cl [Example 401] | 100 | 100 | 4.52 |  |  | 
27 | Cc1cc(I)cc(C(=O)NC(C)C)c1NC(=O)c1cc(Cn2nc(C(F)(F)F)c(C(F)(F)F)n2)nn1-c1ncccc1Cl [Example 403] | 100 | 100 | 4.47 |  |  | 
28 | Cc1cc(I)cc(C(=O)NC(C)(C)C)c1NC(=O)c1cc(Cn2nc(C(F)(F)F)c(C(F)(F)F)n2)nn1-c1ncccc1Cl [Example 404] | 100 | 100 | 4.84 |  |  | 
29 | CNC(=O)c1cc(I)cc(C)c1NC(=O)c1cc(Cn2nc(C(F)(F)F)c(C(F)(F)F)n2)nn1-c1ncccc1Cl [Example 405] | 100 | 100 | 4.03 |  |  | 
30 | Cc1cc(Cl)cc(C(=O)NCC2CC2)c1NC(=O)c1cc(Cn2nc(C(F)(F)F)c(C(F)(F)F)n2)nn1-c1ncccc1Cl [Example 406] | 100 | 100 | 4.29 |  |  | 
31 | Cc1cc(Cl)cc(C(N)=O)c1NC(=O)c1cc(Cn2nc(C(F)(F)F)c(C(F)(F)F)n2)nn1-c1ncccc1Cl [Example 407] | 100 | 100 | 3.49 |  |  | 
32 | Cc1cc(Cl)cc(C(=O)NC(C)C)c1NC(=O)c1cc(Cn2nc(C(F)(F)F)c(C(F)(F)F)n2)nn1-c1ncccc1Cl [Example 409] | 100 | 100 | 4.23 |  |  | 
33 | Cc1cc(Cl)cc(C(=O)NC(C)C2CC2)c1NC(=O)c1cc(Cn2nc(C(F)(F)F)c(C(F)(F)F)n2)nn1-c1ncccc1Cl (stereo not drawn) [Example 410] | 100 | 100 | 4.5 |  |  | 
